How the values were obtained:
[1] = test system: JAK1/JAK2-dependent nuclear translocation of STAT1-GFP in HT1080 fibrosarcoma cells; experiment: STAT1 nuclear translocation assay (Cellomics), IFN-γ stimulated HT1080 STAT1-GFP cells; format: cell-based; details: Homo sapiens, HT-1080, STAT1 translocation pathway
Description: The medium-throughput (96-well format) cellular automated fluorescence microscopy Cellomics assay can be routinely used to assess the functional activation of Janus Kinases (JAKs), based on the nuclear translocation of their substrate, Signal Transducer and Activator of Transcription (STAT). Nuclear translocation can be monitored either in HT1080 fibrosarcoma cells stably transfected with STAT1 fused to Green Fluorescence Protein (GFP) or in U-2 OS osteosarcoma cells stably transfected with STAT5 fused to Green Fluorescence Protein (GFP). Stimulation of HT1080 cells with interferon-γ (IFN-γ) results in JAK1/JAK2-dependent nuclear translocation of STAT1-GFP, whereas stimulation of U-2 OS cells with recombinant human erythropoietin (rhEpo) results in JAK2-dependent nuclear translocation of STAT5-GFP, both of which can be quantified using the Cellomics Cyto/NucTrans software package. This assay may be used to provide an assessment of the nuclear-cytoplasmic differential (NCD) of STAT-GFP using Hoechst dye to define the boundaries of the nucleus.
HT1080 fibrosarcoma cells may be obtained from ATCC and can be cultured in alpha Modified Eagle Medium with 10% FCS. Cells can be transfected with pEGFP-N2 STAT1 using Fugene 6 Transfection Reagent following the manufacturers' protocol. 24 hours after transfection the medium can be replaced and selected in 1 mg/ml Geneticin.
Compounds can be dissolved in DMSO to a final stock concentration of 10 mM and stored as aliquots at 4° C. Compounds may be pre-diluted in 100% DMSO at 10 mM, 3 mM 1 mM, 0.3 mM, 0.1 mM, 0.03 mM, 0.01 mM and 0.003 mM. Subsequently, compounds may be diluted in medium and added in 50 μl to the cells. The final compound concentrations tested may be 10 μM, 3 μM 1 μM, 0.3 μM, 0.1 μM, 0.03 μM, 0.01 μM and 0.003 μM and the final DMSO concentration can be 0.1%.
HT1080 STAT1-GFP cells may be seeded at a density of 10,000 cells per well in clear-bottom black 96-well Packard View-Plates™. 16-24 hours later, the cells can be treated for 2 hours with 100 ng/ml IFN-γ, washed twice in pre-warmed PBS and fixed in 200 μl of pre-warmed fixation solution (PBS, 3.7% Formaldehyde) for 10 minutes. The plates may be washed twice in 200 μl PBS and incubated, protected from light, in 100 μl of DNA-staining solution (PBS, 0.5 μg/ml Hoechst-33342) for 1 minute. The plates may then be washed once in PBS, and 200 μl PBS finally added per well. The plates, being finally covered with a black adhesive, may be either read directly or stored at 4° C. for later imaging. Where appropriate, the compounds may be added 30 min before stimulation with IFN-γ.
The plates can be read on a Cellomics® ArrayscanII automated fluorescence microscope plate reader equipped with a Mercury-Xenon white light illumination source and a Zeiss Axiovert inverted microscope, using the XF100 dichroic/emission filter cube and matching excitation filters, 10× magnification, and a 0.3 numerical aperture objective. Image acquisition and analysis can be performed using a customized protocol based on the ‘NuclearTranslocation’ Bioapplication. For each well, multiple images (fields) can be acquired until a minimum of 1000 cells are counted using two 2 channels: Channel 1 (Hoechst)=focus+nuclear mask, Channel 2 (GFP)=signal quantification in mask areas as outlined below. Nuclei may be first identified based on the Hoechst staining and a mask generated for each nucleus that then serves as a template to generate a circle (eroded inwards by 1 pixel) and a 3 pixel-wide collar-like ring (off-set outwards by 1 pixel), in which the nuclear and cytoplasmic intensity of GFP, respectively, are quantified in the corresponding channel. High content analysis yields numerous measurements per cell and the GFP intensity differential between the nuclear and the cytoplasmic masks may be chosen as a measure of sub-cellular STAT-GFP relocation. The resulting values may be averaged for all cells in the well to return a single measurement plus standard deviation. […]

[2] = target: T1, GST-JAK2(808-1132) (Homo sapiens, UniProt O60674); experiment: JAK2 kinase assay (Caliper mobility shift, LabChip 3000); format: biochemical
T1 construct: GST-JAK2(808-1132); purchased Invitrogen (Carlsbad, USA) #4288
T1 sequence (O60674 808-1132): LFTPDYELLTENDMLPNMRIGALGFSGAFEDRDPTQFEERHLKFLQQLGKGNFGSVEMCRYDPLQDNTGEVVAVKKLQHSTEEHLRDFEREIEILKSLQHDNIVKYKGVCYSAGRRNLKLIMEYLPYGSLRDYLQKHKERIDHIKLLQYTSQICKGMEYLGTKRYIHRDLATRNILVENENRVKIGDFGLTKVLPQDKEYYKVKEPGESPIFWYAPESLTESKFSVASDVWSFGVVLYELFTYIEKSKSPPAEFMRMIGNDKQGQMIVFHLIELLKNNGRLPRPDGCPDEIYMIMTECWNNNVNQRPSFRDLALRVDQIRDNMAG
Method in brief: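 Eight-point compound series (final 10–0.003 μM) tested on purchased GST-JAK2 kinase domain (808-1132). Peptide FITC-JAK3tide plus ATP reacted 60 min, 30 °C, then quenched with EDTA; turnover from charge-based separation of substrate and product.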

| IC50 [1] [nM] | IC50 [2] [nM] | Compound |
| --- | --- | --- |
| 75 | < 3 | CS(=O)(=O)c1ccc(-n2ccc3cnc(Nc4cccc(CN5CCCCC5)c4)nc32)cc1 [Example 41, [7-(4-Methanesulfonyl-phenyl)-7H-pyrrolo[2,3-d]pyrimidin-2-yl]-(3-piperidin-1-ylmethyl-phenyl)-amine] |
| 170 | 3.1 | CS(=O)(=O)c1ccc(-n2ccc3cnc(Nc4ccc(CN5CCCCC5)cc4)nc32)cc1 [Example 42, [7-(4-Methanesulfonyl-phenyl)-7H-pyrrolo[2,3-d]pyrimidin-2-yl]-(4-piperidin-1-ylmethyl-phenyl)-amine] |
| 350 | < 3 | CS(=O)(=O)c1ccc(-n2ccc3cnc(Nc4ccc(Cn5ccnc5)cc4)nc32)cc1 [Example 43, (4-Imidazol-1-ylmethyl-phenyl)-[7-(4-methanesulfonyl-phenyl)-7H-pyrrolo[2,3-d]pyrimidin-2-yl]-amine] |
| 142 | < 3 | CS(=O)(=O)c1ccc(-n2ccc3cnc(Nc4ccc(CN5CCOCC5)cc4)nc32)cc1 [Example 44, [7-(4-Methanesulfonyl-phenyl)-7H-pyrrolo[2,3-d]pyrimidin-2-yl]-(4-morpholin-4-ylmethyl-phenyl)-amine] |
| 73 | < 3 | CS(=O)(=O)c1ccc(-n2ccc3cnc(Nc4cccc(Cn5ccnc5)c4)nc32)cc1 [Example 47, (3-Imidazol-1-ylmethyl-phenyl)-[7-(4-methanesulfonyl-phenyl)-7H-pyrrolo[2,3-d]pyrimidin-2-yl]-amine] |
| 4210 | 27 | CN(C)CCN(C(=O)c1cccc(Nc2ncc3ccn(-c4ccc(S(C)(=O)=O)cc4)c3n2)c1)c1ccccc1 [Example 48, N-(2-Dimethylamino-ethyl)-3-[7-(4-methanesulfonyl-phenyl)-7H-pyrrolo[2,3-d]pyrimidin-2-ylamino]-N-phenyl-benzamide] |
| 878 | 14 | CS(=O)(=O)c1ccc(-n2ccc3cnc(Nc4cccc(C(=O)N5CCOCC5)c4)nc32)cc1 [Example 49, {3-[7-(4-Methanesulfonyl-phenyl)-7H-pyrrolo[2,3-d]pyrimidin-2-ylamino]-phenyl}-morpholin-4-yl-methanone] |
| 184 | < 3 | CN(C)CCNC(=O)c1cccc(Nc2ncc3ccn(-c4ccc(S(C)(=O)=O)cc4)c3n2)c1 [Example 50, N-(2-Dimethylamino-ethyl)-3-[7-(4-methanesulfonyl-phenyl)-7H-pyrrolo[2,3-d]pyrimidin-2-ylamino]-benzamide] |
| 90.5 | < 3 | CS(=O)(=O)c1ccc(-n2ccc3cnc(Nc4ccc(C5CCCN5)cc4)nc32)cc1 (stereo not shown) [Example 53, [7-(4-Methanesulfonyl-phenyl)-7H-pyrrolo[2,3-d]pyrimidin-2-yl]-(4-pyrrolidin-2-yl-phenyl)-amine] |
| 3110 | 4.4 | COCc1ccc(Nc2ncc3ccn(-c4ccc(S(C)(=O)=O)cc4)c3n2)cc1 [Example 54, [7-(4-Methanesulfonyl-phenyl)-7H-pyrrolo[2,3-d]pyrimidin-2-yl]-(4-methoxymethyl-phenyl)-amine] |
| 4680 | 32 | CN1CCN(C(=O)c2ccc(-n3ccc4cnc(Nc5ccc(F)cc5)nc43)cc2)CC1 [Example 56, {4-[2-(4-Fluoro-phenylamino)-pyrrolo[2,3-d]pyrimidin-7-yl]-phenyl}-(4-methyl-piperazin-1-yl)-methanone] |
| 772 | < 3 | O=C(c1ccc(-n2ccc3cnc(Nc4ccc(F)cc4)nc32)cc1)N1CCCC1 [Example 57, {4-[2-(4-Fluoro-phenylamino)-pyrrolo[2,3-d]pyrimidin-7-yl]-phenyl}-pyrrolidin-1-yl-methanone] |
| 5300 | 12 | CN1CCN(C(=O)c2ccc(-n3ccc4cnc(Nc5ccc(F)cc5)nc43)cc2F)CC1 [Example 58, {2-Fluoro-4-[2-(4-fluoro-phenylamino)-pyrrolo[2,3-d]pyrimidin-7-yl]-phenyl}-(4-methyl-piperazin-1-yl)-methanone] |
| 920 | 6.5 | O=C(c1ccc(-n2ccc3cnc(Nc4ccc(F)cc4)nc32)cc1F)N1CCOCC1 [Example 59, {2-Fluoro-4-[2-(4-fluoro-phenylamino)-pyrrolo[2,3-d]pyrimidin-7-yl]-phenyl}-morpholin-4-yl-methanone] |
| 4080 | 8.1 | CC(=O)c1ccc(-n2ccc3cnc(Nc4ccc(F)cc4)nc32)cc1 [Example 60, 1-{4-[2-(4-Fluoro-phenylamino)-pyrrolo[2,3-d]pyrimidin-7-yl]-phenyl}-ethanone] |
| 835 | 7.1 | O=C(c1ccc(-n2ccc3cnc(Nc4ccc(F)cc4)nc32)cc1)N1CCOCC1 [Example 61, {4-[2-(4-Fluoro-phenylamino)-pyrrolo[2,3-d]pyrimidin-7-yl]-phenyl}-morpholin-4-yl-methanone] |
| 5390 | 180 | O=C(NCCN1CCOCC1)c1ccc(-n2ccc3cnc(Nc4ccc(F)cc4)nc32)cc1 [Example 62, 4-[2-(4-Fluoro-phenylamino)-pyrrolo[2,3-d]pyrimidin-7-yl]-N-(2-morpholin-4-yl-ethyl)-benzamide] |
| 40 | < 3 | CS(=O)(=O)c1ccc(-n2ccc3cnc(Nc4ccc(CN5CCS(=O)(=O)CC5)cc4)nc32)cc1 [Example 64, [4-(1,1-Dioxido-thiomorpholin-4-ylmethyl)-phenyl]-[7-(4-methanesulfonyl-phenyl)-7H-pyrrolo[2,3-d]pyrimidin-2-yl]-amine] |
| 99.5 | 5.4 | CN(C)CCN(C)C(=O)c1ccc(Nc2ncc3ccn(-c4ccc(S(C)(=O)=O)cc4)c3n2)cc1 [Example 65, N-(2-Dimethylamino-ethyl)-4-[7-(4-methanesulfonyl-phenyl)-7H-pyrrolo[2,3-d]pyrimidin-2-ylamino]-N-methyl-benzamide] |
| 75.5 | 3.5 | CN(C)C1CCN(C(=O)c2ccc(Nc3ncc4ccn(-c5ccc(S(C)(=O)=O)cc5)c4n3)cc2)CC1 [Example 66, (4-Dimethylamino-piperidin-1-yl)-{4-[7-(4-methanesulfonyl-phenyl)-7H-pyrrolo[2,3-d]pyrimidin-2-ylamino]-phenyl}-methanone] |
| 39 | < 3 | CS(=O)(=O)c1ccc(-n2ccc3cnc(Nc4ccc(C(=O)NCCN5CCOCC5)cc4)nc32)cc1 [Example 67, 4-[7-(4-Methanesulfonyl-phenyl)-7H-pyrrolo[2,3-d]pyrimidin-2-ylamino]-N-(2-morpholin-4-yl-ethyl)-benzamide] |
| 105 | < 3 | CCN1CCCC1CNC(=O)c1ccc(Nc2ncc3ccn(-c4ccc(S(C)(=O)=O)cc4)c3n2)cc1 (stereo not shown) [Example 68, N-(1-Ethyl-pyrrolidin-2-ylmethyl)-4-[7-(4-methanesulfonyl-phenyl)-7H-pyrrolo[2,3-d]pyrimidin-2-ylamino]-benzamide] |

| Compound | IC50 [1] [nM] | IC50 [2] [nM] |
| --- | --- | --- |
| CN1CCN(C(=O)Cc2cccc(Nc3ncc4ccn(-c5ccc(S(C)(=O)=O)cc5)c4n3)c2)CC1 [Example 70, 2-{3-[7-(4-Methanesulfonyl-phenyl)-7H-pyrrolo[2,3-d]pyrimidin-2-ylamino]-phenyl}-1-(4-methyl-piperazin-1-yl)-ethanone] | 275 | 5.6 |
